Read-outs that look alike come from different tables or passages of the source.
Experiments:
[1] = system: uterine sarcoma cells (MES-SA/MX2)
Experimental: (§1) In Vitro Cytotoxicity Assay of Peptide-Drug Conjugates. […] In brief, CCRF-CEM cells were seeded at 50,000 cells in 0.1 mL per well in 98-well plates. In the case of other cell lines, the cells were seeded at 5,000 cells (0.1 mL per well in 96-well plates). […] Dox (5 μM) was used as a positive control, while water and cell culture medium were used as negative controls. The compounds were dissolved in water; water was used as a negative control to normalize the data. After the incubation period, MTS reagent (20 μL) was added to each well. The incubation was continued for 2 h. Cell viability was then determined by determination of the fluorescence intensity at 490 nm using a SpectraMax M2 microplate spectrophotometer. The percentage of cell viability was then calculated using the following equation: [(OD value of cells treated with the compound)−(OD value of culture medium)]/[(OD value of control cells)−(OD value of culture medium)]×100% (FIGS. 6-9).

[2] = system: gastric adenocarcinoma cells (AGS); assay: Cytotoxicity, MTS cell viability assay, AGS; conditions: for reduction of cell survival: 72 h
Experimental: as §1

[3] = system: CCRF-CEM cells; assay: Cytotoxicity, MTS cell viability assay, CCRF-CEM
Experimental: as §1

[4] = system: CCRF-CEM cells; conditions: 3 h incubation; cited from earlier work
[5] = system: LLC-PK1 kidney cells; assay: Cytotoxicity, MTS assay, normal kidney cells; conditions: for Cell Viability (%) after 24 h / Cell Viability (%) after 72 h: normal kidney LLC-PK1
Experimental: (§2) In Vitro Cytotoxicity Assay of Peptide-Drug Conjugates. The cytotoxicity of the compounds was determined by using human leukemia cell line (CCRF-CEM), human ovarian adenocarcinoma cells (SKOV-3) cells, kidney cell line (LLC-PK1), gastric adenocarcinoma cells (AGS), and heart/myocardium cells (H9C2) to evaluate the toxicity of the generated peptides according to a previously reported procedure (Rahman, A.; et al. Proc. Am. Assoc. Cancer Res. 26:2295-2299, 1985, which is incorporated herein by reference). In brief, CCRF-CEM cells were seeded at 50,000 cells in 0.1 mL per well in 98-well plates. In the case of other cell lines, the cells were seeded at 5,000 cells (0.1 mL per well in 96-well plates). The cells were seeded in medium (RPMI-1640 containing FBS (10%)), 24 h prior to the experiment. The compounds at different concentrations (10-50 μM) were added to each well in triplicate and incubated for 24 and 72 h at 37° C. in a humidified atmosphere of 5% CO2. Dox (5 μM) was used as a positive control, while water and cell culture medium were used as negative controls. The compounds were dissolved in water; water was used as a negative control to normalize the data. After the incubation period, MTS reagent (20 μL) was added to each well. The incubation was continued for 2 h. Cell viability was then determined by determination of the fluorescence intensity at 490 nm using a SpectraMax M2 microplate spectrophotometer.

[6] = Cytotoxicity, MTS assay, normal kidney cells; conditions: pig, LLC-PK1 kidney cells
Experimental: as §2

[7] = Cytotoxicity, MTS assay, normal heart muscle cells (Example 1); conditions: rat, H9C2 heart/myocardium cells
Experimental: as §2

[8] = system: H9C2 cells; assay: as above
Experimental: as §2

[9] = system: SK-OV-3 cells; assay: Cytotoxicity, MTS cell viability assay, SK-OV-3 (Example 1)
Experimental: as §1

## N=C(N)NCCC[C@@H]1NC(=O)[C@H](CCCCNC(=O)[C@H](Cc2c[nH]c3ccccc23)NC(=O)[C@H](Cc2c[nH]c3ccccc23)NC(=O)[C@H](Cc2c[nH]c3ccccc23)NC(=O)[C@H](Cc2c[nH]c3ccccc23)NC(=O)[C@H](Cc2c[nH]c3ccccc23)NC(=O)[C@H](Cc2c[nH]c3ccccc23)NC(=O)[C@H](Cc2c[nH]c3ccccc23)NC(=O)CCN)NC(=O)[C@H](CCCNC(=N)N)NC(=O)[C@H](CCCNC(=N)N)NC(=O)[C@H](CCCNC(=N)N)NC(=O)[C@H](CCCNC(=N)N)NC1=O [[R5K]W7A]
[1]; 10 μM
  Cell Viability (%) after 72 h: 110 ± 4%
[1]; 25 μM
  Cell Viability (%) after 72 h: 19 ± 2%
[1]; 25 μM, 72 h
  reduction of cell viability: ~80%
[2]; 5 μM
  Cell Viability (%) after 24 h: 103 ± 3%
  Cell Viability (%) after 72 h: 108 ± 1%
[2]; 10 μM
  Cell Viability (%) after 24 h: 104 ± 1%
  Cell Viability (%) after 72 h: 94 ± 2%
[2]; 25 μM
  Cell Viability (%) after 24 h: 105 ± 2%
  Cell Viability (%) after 72 h: 76 ± 1%
  reduction of cell survival: 24%
[2]; 50 μM
  Cell Viability (%) after 24 h: 79 ± 1%
  Cell Viability (%) after 72 h: 21 ± 1%
  reduction of cell survival: 87%
[2]; 5 and 10 μM, 24 and 72 h
  cytotoxicity: did not generate any significant cytotoxicity
[3]; 5 μM
  Cell Viability (%) after 24 h: 90 ± 1%
  Cell Viability (%) after 72 h: 68 ± 4%
[3]; 10 μM
  Cell Viability (%) after 24 h: 68 ± 4%
  Cell Viability (%) after 72 h: 73 ± 6%
[3]; 25 μM
  Cell Viability (%) after 24 h: 32 ± 0%
  Cell Viability (%) after 72 h: 24 ± 9%
[3]; 25 μM, 24 h
  reduction of cell viability: 68%
[3]; concentrations other than 25 μM, even after 72 h
  cytotoxicity of peptide alone: 10-22%
[4]
  fold improved uptake of F′-GpYEEI: approximately 48 fold
  fold improved uptake of emtricitabine (F′-FTC): ~27 fold
  fold improved uptake of stavudine (F′-d4T): ~36 fold
[5]; LLC-PK1, 5-50 μM, 72 h
  cytotoxicity: did not generate any significant cytotoxicity
[5]; 5 μM
  Cell Viability (%) after 24 h: 94 ± 1%
  Cell Viability (%) after 72 h: 98 ± 3%
[5]; 10 μM
  Cell Viability (%) after 24 h: 86 ± 1%
  Cell Viability (%) after 72 h: 100 ± 1%
[6]
  viability at 24 h, 5 µM: 94 ± 1%
  viability at 24 h, 10 µM: 86 ± 1%
  viability at 24 h, 25 µM: 82 ± 1%
  viability at 24 h, 50 µM: 71 ± 1%
  viability at 72 h, 5 µM: 98 ± 3%
  viability at 72 h, 10 µM: 100 ± 1%
  viability at 72 h, 25 µM: 97 ± 1%
  viability at 72 h, 50 µM: 97 ± 3%
[7]
  viability at 72 h, 10 µM: 105 ± 3%
[8]; normal heart H9C2, 10 μM
  Cell Viability (%) after 24 h: 101 ± 0%
[9]; 5 μM
  Cell Viability (%) after 24 h: 79 ± 1%
  Cell Viability (%) after 72 h: 102 ± 8%
[9]; 10 μM
  Cell Viability (%) after 24 h: 76 ± 0%
  Cell Viability (%) after 72 h: 101 ± 1%
[9]; 25 μM
  Cell Viability (%) after 24 h: 70 ± 6%
  Cell Viability (%) after 72 h: 81 ± 3%
[9]; 25 μM, 72 h
  reduction of cell viability / cytotoxicity: 19%
[9]; 5, 10, and 25 μM, 24 h
  cytotoxicity of peptide alone: 21-30%

## COc1cccc2c1C(=O)c1c(O)c3c(c(O)c1C2=O)C[C@@](O)(C(=O)CO)C[C@@H]3O[C@H]1C[C@H](NC(=N)CCCSSC[C@H](NC(C)=O)C(=O)N[C@@H](Cc2c[nH]c3ccccc23)C(=O)N[C@@H](Cc2c[nH]c3ccccc23)C(=O)N[C@@H](Cc2c[nH]c3ccccc23)C(=O)N[C@@H](Cc2c[nH]c3ccccc23)C(=O)N[C@@H](Cc2c[nH]c3ccccc23)C(=O)N[C@@H](Cc2c[nH]c3ccccc23)C(=O)N[C@@H](Cc2c[nH]c3ccccc23)C(=O)NCCCC[C@@H]2NC(=O)[C@H](CCCNC(=N)N)NC(=O)[C@H](CCCNC(=N)N)NC(=O)[C@H](CCCNC(=N)N)NC(=O)[C@H](CCCNC(=N)N)NC(=O)[C@H](CCCNC(=N)N)NC2=O)[C@H](O)[C@H](C)O1 [[R5K]W7C-S-S-Dox]
[7]
  viability at 24 h, 5 µM: 98 ± 1%
  viability at 24 h, 10 µM: 91 ± 1%
  viability at 24 h, 25 µM: 92 ± 1%
  viability at 72 h, 5 µM: 106 ± 1%
  viability at 72 h, 10 µM: 117 ± 1%
  viability at 72 h, 25 µM: 105 ± 2%
  viability at 96 h, 5 µM: 104 ± 1%
  viability at 96 h, 10 µM: 113 ± 3%
  viability at 96 h, 25 µM: 108 ± 1%
[8]; H9C2, 5-10 and 25 μM, any incubation time
  cytotoxicity: did not show any cytotoxicity
